Data on seven compounds can be found in patent US5173498A, “Substituted 3-thia- and 3-oxa-alkylflavones, a process for their preparation, the use thereof, medicaments based on these compounds and intermediates” (Hoechst Aktiengesellschaft, priority 1990, dated 1992).

For orientation: IC50 means the midpoint of a concentration-inhibition curve.

The subject of one assay is LDL. The assay can be described thus: Inhibition of Cu^2+-catalyzed LDL oxidation (increase in fluorescence at 430 nm). Type of assay: biochemical, pigs. The conditions noted are these: Table I; 50% inhibition of fluorescence increase at 430 nm; 5 μM Cu^2+, 2 hours, 37° C., pH 7.4; LDL 0.1 mg protein/ml. As to the method: The method for testing the antioxidant action of the substances is based on the inhibition of the Cu^2+ -catalyzed oxidation of LDL by active compounds, the increase in fluorescence at 430 nm serving as a measure of the LDL oxidation (U.P. Steinbrecher, J. Biol. Chem. 262. 3603 (1987)).
Blood from freshly slaughtered pigs, which was collected in the presence of EDTA (1 mg/ml) and NaN3 (0.1 mg/ml) and then centrifuged for 20 min at 2,000×g and 4° C. in order to remove the cellular constituents, was used for isolation of the LDL. Stepwise ultracentrifuging of the plasma in NaCl/NaBr solutions having densities of d=1.019 and d=1.063 yielded the LDL fraction (R. J. Havel, H. A. Eder and J. H. Bragdon, J. Clin. Investig. 34, 1345 (1955)). In this method the samples were centrifuged in a 50.2 Ti fixed angle rotor (Beckman Instruments) in each case for 18 hours at 300,000×g and 17° C. In order to lower the EDTA concentration, the LDL fraction obtained in this way had to be subjected for 48 hours to two dialyses in 100 times the volume of a phosphate-buffered saline solution (160 mM NaCl, 10 mM NaH2 PO4) of pH 7.4 (U. P. Steinbrecher, J. L. Witztum, S. Parthasarathy and D. Steinberg, Arteriosclerosis 7, 135 (1987)).
For the oxidation tests, the LDL fraction, which was stored at 4° C., was diluted to 0.1 mg of protein/ml using the dialysis buffer of the abovementioned composition. 2.5 ml of this LDL solution were treated with 25 μl of ethanolic solution having various concentrations of the test substance and the samples were incubated in closed vessels under nitrogen for 1 hour at 37° C., in order initially to achieve an adequate incorporation of the substance in the LDL particles (L. R. McLean and K. A. Hagaman, Biochemistry 28, 321 (1989)). The maximum concentration of the test compounds was 10 μM in the test.
The oxidation of the LDL was effected by adding 12.5 μl of a 1 mM CuSO4 solution, i.e. 5 μM Cu^2+ in the test, and incubating for two hours at 37° C. in cell culture dishes open to the air. The controls contained 25 μl of pure ethanol. To determine the blank, analogously prepared LDL samples were treated with 12.5 μl of a solution of 1 mM CuSO4 and 40 mM EDTA and likewise incubated for 2 hours at 37° C.
After the end of the incubation, the fluorescence intensity emitted at 430 nm was determined in all samples using the excitation wavelength 365 nm (Perkin-Elmer type LS-3 spectrofluorimeter).
The IC50 values, i.e. those molar concentrations which, under the test conditions described, inhibit the increase in fluorescence by 50% (controls =100), were determined for comparison of the strength of action of the antioxidants. For this purpose the fluorescence measurement was carried out as a duplicate determination using, in each case, 5 to 6 different concentrations of the test substance. Plotting the percentage inhibition values on semi-logarithmic paper and graphic interpolation gave the corresponding IC50 (Table I). Vitamin E was used as comparison compound.

Assay [1] has as its system cholesterol biosynthesis in HEP-G2 cells. Nature of the assay: Suppression or inhibition of cholesterol biosynthesis in cell cultures of HEP-G2 cells. Particulars: Homo sapiens, HepG2, Table II, ^14C-cholesterol formed from ^14C-sodium acetate. It counts as cell-based. As to the method:
Monolayers of HEP-G2 cells in lipoprotein-free nutrient medium were preincubated with corresponding concentrations of the test substances for a certain time (e.g. 1 hour) and after addition of the labeled precursor, for example ^14 C-sodium acetate, the incubation was continued (e.g. 3 hours). After addition of an internal standard (^3 H-cholesterol), a portion of the cells was subjected to alkaline saponification. The lipids in the saponified cells were extracted with chloroform/methanol. After addition of carrier cholesterol, this lipid mixture was separated by preparative thin layer chromatography, the cholesterol band was isolated after rendering visible using iodine vapor and the amount of ^14 C-cholesterol formed from the ^14 C-precursor was determined by scintigraphy. Cell protein was determined in a aliquote portion of the cells, so that the amount of ^14 C-cholesterol formed per unit time per mg of cell protein can be calculated. By comparing this value with the amount of ^14 C-cholesterol which was formed per mg of cell protein and per unit time from a culture which was treated in the same way but free from test substance, the inhibitory effect of the particular test preparation on the cholesterol biosynthesis of HEP-G2 cell cultures was obtained. [drawing 12]
Using the method described above, for example, the following inhibitory values for the cholesterol biosynthesis (in HEP-G2 cells) were determined for the compounds according to the invention (the IC50 value in mole/liter is that concentration of the compound which effects a 50% inhibition of the cholesterol biosynthesis) (Tab. II).

Compound `CCCCCCCCCCCCCCCCCCSCc1c(-c2ccc(F)cc2)oc2cc(O)cc(O)c2c1=O` [Example 9d] had an IC50 with LDL of 8000 nM.

With `CCCCCCCCCCCCSCc1c(-c2ccc(F)cc2)oc2cc(O)cc(O)c2c1=O` [Example 9b], in the assay on LDL, the half-maximal inhibitory concentration (IC50) was determined as 12000 nM. This IC50 is about 1.5-fold higher than that of the compound before.

Turning to `C/C(=C\CSCc1c(-c2ccc(O)cc2)oc2cc(O)cc(O)c2c1=O)CCC[C@H](C)CCC[C@H](C)CCCC(C)C` [Example 9i], the results for the 50% inhibitory concentration (IC50) (in assay [1]; with LDL) were 9 nM and 900 nM, respectively.

In assay [1], `COc1ccc(-c2oc3cc(O)cc(O)c3c(=O)c2CSC/C=C(\C)CC/C=C(\C)CCC=C(C)C)cc1` [Example 9m] registered an IC50 of 80 nM.

On to `C/C(=C\CSCc1c(-c2ccc(F)cc2)oc2cc(O)cc(O)c2c1=O)CCC[C@H](C)CCC[C@H](C)CCCC(C)C` [Example 9e], for which the half-maximal inhibitory concentration (IC50) came out at 10 nM in assay [1] and 330 nM in the assay on LDL.

Take Vitamin E [reference compound]: in the assay on LDL, the IC50 came to 4800 nM.

In the case of `CC(C)=CCC/C(C)=C/CC/C(C)=C/CSCc1c(-c2ccc(F)cc2)oc2cc(O)cc(O)c2c1=O` [Example 9l], in assay [1], the IC50 came out at 80 nM.
